# Earlier results in US20220361717A1, “Anti-Pathogenic Hand Sanitization Station” (priority 2021, published 2022).
# Entries after “also recorded” stand apart in the source; their conditions may differ.
# Tests used:
# [1] = system: Bacteria: Gram-positive; Gram-negative; details: copolymerization of antimicrobial monomer and styrene; effect on the potency of the monomer
# [2] = system: Bacteria: S. Aureus; P. aeruginosa; E. coli
# [3] = system: Bacteria: Pseudomonas aeruginosa; Staphylococccus
# Bacteria: E-coli = details: value = inhibited species
# [4] = system: Bacteria: E. coli; S. aureus; S. typhimurium
# [5] = system: Bacteria: Gram-postive bacteria; details: homopolymer versus model compound p-ethylbenzyl tetramethylene sulforium tetrafluoroborate
# [6] = system: Bacteria: S. aureus; E. coli; details: value = inhibited species
structure (smiles),measurement,setting,value
C=CC(=O)Nc1cccc(C)c1,Comparison of Polymers with Monomer,[1],styrene decreases
C=C(C)C(=O)OCC(O)CSc1nnc(C)s1 (stereo not shown),Comparison of Polymers with Monomer,[2]; homopolymer effectiveness versus the monomer,more
same,Inhibited Microbial Species,[2]; value = inhibited species,Bacteria: S. Aureus;; also recorded: P. aeruginosa;; also recorded: E. coli;
C=CC(=O)Oc1cc(Cl)ccc1Oc1ccc(Cl)cc1Cl,Comparison of Polymers with Monomer,"[3]; homopolymer and copolymers with methyl methacrylate, styrene versus the monomer",less effective
same,Inhibited Microbial Species,"[3]; value = inhibited species, 'Pseudomonas aeruginosa' wrapped over cells",Staphylococccus
C=CC(=O)N1C(C)(C)NC(=O)C1(C)C,Inhibited Microbial Species,Bacteria: E-coli,Bacteria: E-coli
C=CC(=O)Oc1ccc(Cl)c2cccnc12,Comparison of Polymers with Monomer,[4]; homopolymer and copolymers with acrylamide versus the monomer,less effective than
same,Inhibited Microbial Species,[4]; value = inhibited species,S. aureus;; also recorded: S. typhimurium
C=Cc1ccc(C[S+]2CCCC2)cc1,Comparison of Polymers with Monomer,[5],is more effective
C=C(C)C(=O)OCCOC(=O)C(C)CC1(CCCCCCCC)CCC(CCCCCCCC)(CC(C)C(=O)OCCOC(=O)C(=C)C)CC1 (stereo not shown),Inhibited Microbial Species,[6],Bacteria: S. aureus;; also recorded: E. coli
